The values below come from paper PMC11008770 (Nature structural & molecular biology, 2023).

What is called IC50 is the point on the concentration scale where inhibition reaches its midpoint. Read a high IC50 as weaker potency in that assay. For orientation: Kd means the free concentration of one partner at which half of the binding sites on the other are occupied at equilibrium, for simple one-to-one binding.

For assay [1], the target named is T1, AE1 (Homo sapiens, UniProt P02730).
T1 sequence (P02730 1-911): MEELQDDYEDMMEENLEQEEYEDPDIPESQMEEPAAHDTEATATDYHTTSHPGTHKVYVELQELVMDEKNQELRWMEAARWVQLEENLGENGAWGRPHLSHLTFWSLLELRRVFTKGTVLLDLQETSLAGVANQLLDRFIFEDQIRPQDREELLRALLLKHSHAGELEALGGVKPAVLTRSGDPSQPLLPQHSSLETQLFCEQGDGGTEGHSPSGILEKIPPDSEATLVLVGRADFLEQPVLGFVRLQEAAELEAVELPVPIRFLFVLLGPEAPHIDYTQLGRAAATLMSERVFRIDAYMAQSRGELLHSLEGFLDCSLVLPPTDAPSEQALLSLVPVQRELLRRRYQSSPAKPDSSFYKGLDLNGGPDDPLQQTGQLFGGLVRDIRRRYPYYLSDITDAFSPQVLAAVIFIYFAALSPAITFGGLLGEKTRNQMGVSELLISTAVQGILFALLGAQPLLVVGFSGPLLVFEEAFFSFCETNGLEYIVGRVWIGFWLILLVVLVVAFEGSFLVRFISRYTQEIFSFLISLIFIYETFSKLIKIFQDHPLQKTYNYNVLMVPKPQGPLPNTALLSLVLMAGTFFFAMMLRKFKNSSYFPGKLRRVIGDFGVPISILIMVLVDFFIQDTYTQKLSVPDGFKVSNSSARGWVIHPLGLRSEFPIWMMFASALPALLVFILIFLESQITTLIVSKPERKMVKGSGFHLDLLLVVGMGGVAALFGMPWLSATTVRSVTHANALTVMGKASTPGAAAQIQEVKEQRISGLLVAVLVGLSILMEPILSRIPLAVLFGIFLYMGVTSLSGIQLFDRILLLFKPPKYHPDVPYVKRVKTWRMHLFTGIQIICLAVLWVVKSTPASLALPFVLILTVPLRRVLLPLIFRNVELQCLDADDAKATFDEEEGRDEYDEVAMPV
As to the kind of experiment: Cellular bicarbonate uptake assay. It is filed as cell-based.

The target in assay [2] is AE1. The following applies: read-out: Kd of bicarbonate; NMR studies; cited from earlier work.
Assay [3] concerns the target AE1. The following applies: read-out: Kd of bicarbonate; flux studies in erythrocytes; cited from earlier work.

Where two headings read alike, the source gives them in different places.

`O=C(O)c1cccnc1Nc1cccc(C(F)(F)F)c1` [NIF, Niflumic acid] had a concentration for half-maximal inhibition (IC50) against AE1 [1] of 0.015 mM. For the same compound, the “AE1 inhibition in cellular bicarbonate uptake, single dose” value on AE1 [1] (50 μM throughout the experiment, n = 3) is recorded as “statistically significant AE1 inhibition”.

On to `O=C(O)O` [bicarbonate], for which the dissociation constant Kd at AE1 [2] was 5.4 mM; on AE1 [3], 2 mM.
